Values of other authors, collected in patent US10413482B2, “Delamination resistant pharmaceutical glass containers containing active pharmaceutical ingredients” (Corning Incorporated, priority 2011, dated 2019).

Columns and labels:
[1] = system: patients with acute coronary syndrome (ACS); details: in vivo
[2] = not given; remark: listed apart in the source
[3] = for duration of action: after injection
[4] = system: patients with moderate to severe ulcerative colitis; details: in vivo
[5] = system: patients whose asthma cannot be adequately controlled with inhalable glucocorticoids; details: in vivo
[6] = once-daily
[7] = system: adults with late-onset LAL Deficiency

Q: With COC(=O)[C@H](Cc1cccc(C(=N)N)c1)[C@@H](C)NC(=O)c1ccc(-c2cc[n+]([O-])cc2)cc1 (mixture of isomers) [Otamixaban, reference compound] as the molecule, how does the “degradation during sterilization and storage” value (formulations at pH between 3 and 5) read?
A: The value was “decreased otamixaban degradation during sterilization and storage”.

Q: And the major coronary complications [1]?
A: Its major coronary complications is “reduce major coronary complications”.

Q: Which half-life [2] does the source give for [Cl][223Ra][Cl] [Radium-223, Radium-223 dichloride] here?
A: The half-life was 11.4 days.

Q: For Insulin detemir, which duration of action [3] is on record?
A: Its duration of action is “up to 24 hours”.

Q: For “Vedolizumab: humanized monoclonal antibody targeting α4β7 integrin”, which “safety and clinical remission” value [4] is on record?
A: Its value is “safe and effective for inducing and maintaining clinical remission”.

Q: Which duration of action [3] does the source give for insulin degludec here?
A: The duration of action was “more than 24 hours”.

Q: For “insulin regular: formulation of recombinant insulin structurally identical to the insulin produced by the human pancreas”, which duration of action [3] is on record?
A: The duration of action was “approximately 8 hours”.

Q: And the “onset of pharmacologic effect” value ([3]; after subcutaneous administration)?
A: The value was “approximately one-half”.

Q: With “lebrikizumab: humanized monoclonal antibody against interleukin-13 (IL-13)” as the molecule, how does the symptoms of asthma [5] read?
A: The symptoms of asthma was “significantly decrease the symptoms of asthma”.

Q: What does the source list for lixisenatide?
A: tolerability [6]: well-tolerated; glycemic control ([6]; one-step dose increase, single maintenance dose): significantly improved glycemic control

Q: For relaxin, which shelf-life (approximately pH 5, 5° C., acceptable reduction of 10% in the HPLC main peak area) is on record?
A: Its shelf-life is “at least 2 years”.

B1: SBC-102: recombinant form of the human LAL enzyme (protein, UniProt P38571 77-399, looked up)
Lysosomal acid …: GPKPVVFLQHGLLADSSNWVTNLANSSLGFILADAGFDVWMGNSRGNTWSRKHKTLSVSQDEFWAFSYDEMAKYDLPASINFILNKTGQEQVYYVGHSQGTTIGFIAFSQIPELAKRIKMFFALGPVASVAFCTSPMAKLGRLPDHLIKDLFGDKEFLPQSAFLKWLGTHVCTHVILKELCGNLCFLLCGFNERNLNMSRVDVYTTHSPAGTSVQNMLHWSQAVKFQKFQAFDWGSSAKNYFHYNQSYPPTYNVKDMLVPTAVWSGGHDWLADVYDVNILLTQITNLVFHESIPEWEHLDFIWGLDAPWRLYNKIINLMRKYQ
Q: Which LDL ([7]; same time period) does the source give for B1 here?
A: Its LDL is “a reduction in LDL was also observed”.

Q: And the “total cholesterol, HDL cholesterol, and triglycerides” value ([7]; versus original baseline, p<0.05)?
A: The value was “significantly improved”.

Q: What about the liver transaminase levels ([7]; weekly then every other week infusions) of the same molecule?
A: Its liver transaminase levels is “sustained impact of SBC-102 on reducing liver transaminase levels”.
